US20250034171A1, “IMIDAZOPYRIDINE AMIDES AND RELATED COMPOUNDS FOR USE IN THE TREATMENT OF BACTERIAL INFECTIONS” (priority 2021, published 2025)
Values after ≈ are worked out from the molar mass of the structure shown. Where two headings read alike, the source gives them in different places.

Key:
[1] = HTChem stab assay (chemical stability in buffer pH2, pH4 and pH7 vs DMSO reference); type: physicochemical; conditions: 72 h, 50 µM; for Chemical stability data, Buffer pH2: pH 2; for Chemical stability data, Buffer pH4: pH 4; for Chemical stability data, Buffer pH7: pH 7
Outline: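 Compound from 10 mM DMSO stock shaken 72 h at room temperature in Buffer/DMSO (2:1) at pH2 (0.1N HCl), pH4 or pH7 (phosphate), alongside a DMSO control. Samples analysed by LC/UV/MS against the DMSO reference; degradant peaks identified by MS and sample purity reported.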

[2] = tested on: Mycobacterium tuberculosis strain H37Rv; assay: Test 2: MIC determination against M. tuberculosis, resazurin fluorescence; type: cell-based; conditions: Test 2, M. tuberculosis H37Rv; for MIC90 / IC50: Mycobacterium tuberculosis, H37RV; for MIC90: read-out: Bacterial activity MIC90; for IC50: read-out: Bacterial activity pMIC50 (converted)
[3] = Metabolic stability in liver microsomes (intrinsic clearance); type: in vitro ADME
Outline: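 Parent-compound loss, followed by LC-MS/MS peak area versus t=0, was tracked over 0, 5, 10, 20, 40 and 60 min in NADPH-initiated (1 mM) microsomal incubations: 0.5 mg/ml protein, pH 7.4 phosphate, 1 mM MgCl2, 37° C, substrate typically 1 μM. Half-life from regression gave intrinsic clearance per mg protein.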

[4] = tested on: Salmonella typhimurium Ames II Mixed Strains (TA7001-TA7006) and TA98; assay: Genotoxicity assay (AmesIIb mutagenicity test); type: cell-based; conditions: Salmonella typhimurium; further: key: an AmesIIb score of 1 shows no genotoxicity signals
Description: The aim is to evaluate compounds (and/or their metabolites) for their ability to induce reverse mutations in a gene of histidine-requiring Salmonella typhimurium strains to produce histidine-independent strains of these bacteria, in the absence and in the presence of a mammalian metabolic activation system.
Point mutations were made in the histidine (His) operon in Salmonella typhimurium, rendering the bacteria incapable of producing histidine. These single base substitutions are positioned at strategic points within the His gene, resulting in his-organisms that cannot grow unless histidine is supplied. When a mutagenic event occurs, base substitutions within the His gene then cause the reversion of the his-Ames II™ strains to His.
A chemical's mutagenic potential is assessed by exposing these his-organisms to varying concentrations of chemical and selecting for the reversion event. Medium lacking histidine is used for this selection which allows only those cells that have undergone the his- to His reversion to survive and grow.
The assay may be performed using a kit and instructions from Xenometric. The two strains provided in the Xenometric kit are the Ames II™ Mixed Strains and TA98. The Ames II™ Mixed Strains contains an equimolar mixture of the Ames II™ TA7001-TA7006 strains. Individually, these strains are designed to revert by only one specific base-pair substitution out of six possible changes. Thus, when mixed, all six base substitution mutations can be represented in one culture. This kit also contains TA98 for the detection of frameshift mutations.

[5] = mouse, microsomes, pH 7.4, Metabolic Stability Half life (mouse, min.)
[6] = mouse, microsomes, pH 7.4, mouse liver microsomes, read-out: Metabolic Stability (liver microsome intrinsic clearance) Clearance (mouse, μl/min./mg protein)
[7] = human, microsomes, pH 7.4, Metabolic Stability Half life (human, min.)
[8] = human, microsomes, pH 7.4, human liver microsomes, read-out: Metabolic Stability (liver microsome intrinsic clearance) Clearance (human, μl/min./mg protein)

Row | Compound | Chemical stability data, Vehicle DMSO [1] [%] | Chemical stability data, Buffer pH2 [1] [%] | Chemical stability data, Buffer pH4 [1] [%] | Chemical stability data, Buffer pH7 [1] [%] | MIC90 [2] [µM] | IC50 [2] [pM] | half-life at 1 µM [3, 5] [h] | microsomal CLint at 1 µM [3, 6] [µL/min/mg] | GeneTox AmesIIb Score [4] | Bacterial activity pMIC50 [2] | Metabolic Stability (liver microsome intrinsic clearance) Clearance (mouse, μl/min./mg protein) ([3]; mouse liver microsomes) [μl/min./mg protein] | Metabolic Stability Half life (mouse, min.) ([3]; mouse, microsomes, 1 µM, pH 7.4) [h] | half-life at 1 µM [3, 7] [h] | microsomal CLint at 1 µM [3, 8] [µL/min/mg]
1 | CCc1nc2nc(C)ccn2c1C(=O)NCc1ccc(-c2nc3n(n2)CCC(C(F)(F)F)C3)cc1 (single isomer, unassigned) [Compound 5a] | 100 | 100 | 100 | 100 | 0.06 (≈ 0.029 µg/mL) | 21600 | > 3 | < 7.7 | 1 |  |  |  |  | 
2 | CCc1nc2ncc(Cl)cn2c1C(=O)NCc1ccc(-c2nc3n(n2)CCC(C(F)(F)F)C3)cc1 (single isomer, unassigned) [Compound 10a] | 100 | 84 | 76 | 97 |  |  | > 3 | < 7.7 | 1 | <6.301 |  |  |  | 
3 | CCc1nc2ncc(Cl)cn2c1C(=O)NCc1ccc(-c2nc3n(n2)CCC(C(F)(F)F)C3)cc1 (single isomer, unassigned) [Compound 10b] | 96 | 81 | 71 | 92 | 0.021 (≈ 0.0106 µg/mL) |  |  |  | 1 | 8.207 | 11.1 | 2.08 |  | 
4 | CCc1nc2ncc(C)cn2c1C(=O)NCc1ccc(-c2nc3n(n2)CCC(C(F)(F)F)C3)cc1 (stereo not shown) [Compound 1ab] | 100 | 100 | 100 | 100 | 0.028 (≈ 0.0135 µg/mL) | 9550 | > 3 | < 7.7 | 1 |  |  |  | > 3 | < 7.7
5 | CCc1nc2ncc(C)cn2c1C(=O)NCc1ccc(-c2nc3n(n2)CCC(C)C3)cc1 (stereo not shown) [Compound 4ab] | 98 | 98 | 98 | 98 | 0.017 (≈ 0.0073 µg/mL) | 7050 | 2.75 | 8.38 | 1 |  |  |  |  | 
6 | CCc1nc2nc(C)ccn2c1C(=O)NCc1ccc(-c2nc3n(n2)CCC(C(F)(F)F)C3)cc1 (stereo not shown) [Compound 5ab] | 94 | 95 | 96 | 96 | 0.023 (≈ 0.0111 µg/mL) | 8280 | > 3 | < 7.7 | 1 |  |  |  |  | 
7 | CCc1nc2ncc(OC)cn2c1C(=O)NCc1ccc(-c2nc3n(n2)CCC(C(F)(F)F)C3)cc1 (stereo not shown) [Compound 6ab] | 93 | 100 | 100 | 100 | 0.007 (≈ 0.0035 µg/mL) | 3480 | 1.62 | 14.2 | 1 |  |  |  |  | 
8 | CCc1nc2nc(C)c(C)cn2c1C(=O)NCc1ccc(-c2nc3n(n2)CCC(C(F)(F)F)C3)cc1 (stereo not shown) [Compound 9ab] | 100 | 100 | 100 | 100 | 0.011 (≈ 0.00547 µg/mL) | 4940 | 1.66 | 13.9 | 1 |  |  |  |  | 
9 | CCc1nc2ncc(Cl)cn2c1C(=O)NCc1ccc(-c2nc3n(n2)CCC(C(F)(F)F)C3)cc1 (stereo not shown) [Compound 10ab] | 90 | 72 | 64 | 90 | 0.016 (≈ 0.00806 µg/mL) | 5500 | > 3 | < 7.7 | 1 |  |  |  |  | 
10 | CCc1nc2nc(N)c(C)cn2c1C(=O)NCc1ccc(-c2nc3n(n2)CCC(C(F)(F)F)C3)cc1 (stereo not shown) [Compound 12ab] | 99 | 100 | 100 | 100 | 0.064 (≈ 0.0319 µg/mL) | 23400 | > 3 | < 7.7 | 1 |  |  |  | > 3 | < 7.7
11 | CCc1nc2ncc(C)cn2c1C(=O)NCc1ccc(-c2cc3n(n2)CCC(C(F)(F)F)C3)cc1 (stereo not shown) [Compound 20ab] | 100 | 100 | 100 | 100 | 0.003 (≈ 0.00145 µg/mL) | 931 | 1.08 | 21.3 | 1 |  |  |  | 0.637 | 36.3
12 | CCc1nc2ncc(C)cn2c1C(=O)NCc1ccc(-c2nc3n(n2)CCC(C(F)(F)F)C3)c(F)c1 (stereo not shown) [Compound 22ab] | 98 | 97 | 97 | 98 | 0.007 (≈ 0.00351 µg/mL) | 2290 | 1.78 | 13 | 1 |  |  |  |  | 
13 | CCc1nc2ncc(C)cn2c1C(=O)NCc1ccc(-c2nc3n(n2)CCC(C(F)(F)F)C3)c(C)c1 (stereo not shown) [Compound 23ab] | 100 | 100 | 100 | 100 | 0.022 (≈ 0.0109 µg/mL) | 8300 | 1.58 | 14.6 | 1 |  |  |  |  | 
14 | CCc1nc2ncc(C)cn2c1C(=O)NCc1ccc(-c2nc3n(n2)CC(C(F)(F)F)CC3)cc1 (stereo not shown) [Compound 24ab] | 100 | 100 | 100 | 100 | 0.008 (≈ 0.00387 µg/mL) | 3380 | > 3 | < 7.7 | 1 |  |  |  |  | 
15 | CCc1nc2ncc(C)cn2c1C(=O)NCc1ccc(-c2nc3n(n2)CCC(C(F)F)C3)cc1 (stereo not shown) [Compound 25ab] | 100 | 100 | 100 | 100 | 0.014 (≈ 0.00652 µg/mL) | 7460 | 2.32 | 9.97 | 1 |  |  |  |  | 
16 | CCc1nc2ncc(C)cn2c1C(=O)NCc1ccc(-c2nc3n(n2)CCC(OC)C3)cc1 (stereo not shown) [Compound 26ab] | 95 | 95 | 95 | 95 | 0.143 (≈ 0.0637 µg/mL) | 49400 | 2.12 | 10.9 | 1 |  |  |  |  | 
17 | CCc1nc2ncc(C)cn2c1C(=O)NCc1ccc(-c2nc3n(n2)CCC(O)C3)cc1 (stereo not shown) [Compound 29ab] | 100 | 100 | 100 | 100 | 3.19 (≈ 1.38 µg/mL) | > 500000 | > 3 | < 7.7 | 1 |  |  |  | > 3 | < 7.7
18 | CCc1nc2ncc(C)cn2c1C(=O)NCc1ccc(-c2nc3n(n2)CCC(OCCOC)C3)cc1 (stereo not shown) [Compound 30ab] | 98 | 98 | 98 | 98 | 0.332 (≈ 0.163 µg/mL) | 109000 | 2.55 | 9.08 | 1 |  |  |  |  | 
